Results as given in patent US12697290B2, “Cosmetic compounds having two linked maleimide groups, cosmetic preparations, and method for treatment of keratin materials” (TARA BRANDS EUROPE S.L.U., priority 2022, dated 2026).

Test: Thiol recombination: reaction of test compound with cysteine reagent, conversion into mono- and bis-Michael-addition products monitored by LC-MS
Conditions: 30° C.; for Conversion at 15 min, bis-Michael-addition product (bis) / Conversion at 15 min, mono-Michael-addition product (mono) / Conversion at 30 min, bis-Michael-addition product (bis) / Conversion at 30 min, mono-Michael-addition product (mono) / Conversion at 60 min, bis-Michael-addition product (bis) / Conversion at 60 min, mono-Michael-addition product (mono): test solution 1 (pH=5.4), 0.05M
Text: N-Fmoc-cysteine (hereinafter C1) or N-Cbz-cysteine (hereinafter C2) were obtained by reduction of their cysteine counterparts via a literature known method. Adv. Syn. Catal., 2020, 362, 5093-5104. DOI: 10.1002/adsc.202000716. “OLAPLEX® No. 0 Intensive Bond Building Hair Treatment” is a commercially available product which comprises an active agent, water, phenoxyethanol and sodium benzoate. The active agent is hereinafter labelled “Olaplex active agent” or “reference compound #2”.
The compound to be tested (1 eq.) was dissolved in an aqueous media (0.02-0.05 M) and 4 eq. of cysteine reagent (N-Fmoc-cysteine (C1) or N-Cbz-cysteine (C2)) were added. Two test solutions were used as aqueous media: test solution 1 was a phosphate buffer (pH=5.4) with or without an emulsifier (e.g. Eumulgin) and test solution 2 was an aqueous solution containing 0.49% (w/w) sodium benzoate and 0.30% (w/w) citric acid with or without an emulsifier (e.g. Eumulgin).
To make the phosphate buffer a solution of 0.1-M solution of citric acid (use citric acid monohydrate) and a 0.2-M solution of Na2HPO4 (use Na2HPO4 or Na2HPO4*2H2O) were prepared and mixed with the following ratio: 44.25 mL/55.75 mL=mL 0.1M-citric acid/mL 0.2M Na2HPO4 to give a buffer solution with pH=5.4.
The tests were performed at ambient temperature of 30° C. under stirring with small magnetic stirrers in LC-MS vials or small glass vials (see picture 1). The reactions were performed under normal atmosphere. The reactions were monitored by LC-MS. The reaction scale was between 4 and 10 mg of tested compound. To calculate the conversion into products the ratio between cysteine reagent, mono-Michael-addition product (mono) and bis-Michael-addition product (bis) as shown in the following schemes were compared.

[1] = test solution 1 (pH=5.4)+1% eumulgin, 0.02M
[2] = test solution 1 (pH=5.4)+1% eumulgin, 0.02M, 60 min
[3] = test solution 1 (pH=5.4)+2.5% eumulgin, 0.02M
[4] = test solution 1 (pH=5.4)+2.5% eumulgin, 0.02M, 60 min
[5] = test solution 2+1% Eumulgin, 0.02M
[6] = test solution 2+1% Eumulgin, 0.02M, 60 min

**Q.** For `O=C1C=CC(=O)N1CCCOCC12CCC(COCCCN3C(=O)C=CC3=O)(CC1)CC2` [SPC-TB-0003], which “Conversion at 15 min, bis-Michael-addition product (bis)” value (“Conversion at 15 min … (bis)” for short) is on record?
**A.** 29% bis

**Q.** And the “Conversion at 15 min, mono-Michael-addition product (mono)” value (“Conversion at 15 min … (mono)” below)?
**A.** 9% mono

**Q.** What about the “Conversion at 30 min, bis-Michael-addition product (bis)” value (“Conversion at 30 min … (bis)” for short) of the same compound?
**A.** 77% bis

**Q.** And the “Conversion at 30 min, mono-Michael-addition product (mono)” value (“Conversion at 30 min … (mono)” below)?
**A.** 10% mono

**Q.** Which “Conversion at 15 min … (bis)” value does the source give for `O=C1C=CC(=O)N1CCCOCC12CC(COCCCN3C(=O)C=CC3=O)(C1)C2` [SPC-TB-0001] here?
**A.** 15% bis

**Q.** What about the “Conversion at 15 min … (mono)” value of the same compound?
**A.** 0% mono

**Q.** And the “Conversion at 30 min … (bis)” value?
**A.** 28% bis

**Q.** And the “Conversion at 30 min … (mono)” value?
**A.** 0% mono

**Q.** What about the “Conversion at 60 min, bis-Michael-addition product (bis)” value (“Conversion at 60 min … (bis)” for short) (60 min) of the same compound?
**A.** 21% bis

**Q.** And the “Conversion at 60 min, mono-Michael-addition product (mono)” value (“Conversion at 60 min … (mono)” for short) (60 min)?
**A.** 0% mono

**Q.** For `O=C1C=CC(=O)N1CCOCC12CC(COCCN3C(=O)C=CC3=O)(C1)C2` [SPC-TB-0002, 1,1′-(((bicyclo[1.1.1]pentane-1,3-diylbis(methylene))bis(oxy))bis(ethane-2,1-diyl))bis(1H-pyrrole-2,5-dione)], which “Conversion at 15 min … (bis)” value is on record?
**A.** 17% bis

**Q.** And the “Conversion at 15 min … (mono)” value?
**A.** 0% mono

**Q.** And the “Conversion at 30 min … (bis)” value?
**A.** 11% bis

**Q.** And the “Conversion at 30 min … (mono)” value?
**A.** 0% mono

**Q.** What about the “Conversion at 60 min … (bis)” value (60 min) of the same compound?
**A.** 10% bis

**Q.** What about the “Conversion at 60 min … (mono)” value (60 min) of the same compound?
**A.** 0% mono

**Q.** Which results are given for `O=C1C=CC(=O)N1CCOCCOCCOCC12CC(COCCOCCOCCN3C(=O)C=CC3=O)(C1)C2` [SPC-TB-0013]?
**A.** Conversion at 30 min, bis [1]: 67% bis; Conversion at 30 min, mono [1]: 16% mono; Conversion at 60 min, bis [2]: 66% bis; Conversion at 60 min, mono [2]: 15% mono; Conversion at 30 min, bis [3]: 57% bis; Conversion at 60 min, bis [4]: 57% bis; Conversion at 5 h, bis [3]: 46% bis; Conversion at 30 min, bis [5]: 36% bis; Conversion at 30 min, mono [5]: 10% mono; Conversion at 60 min, mono and bis (test solution 2+1% Eumulgin, 0.02M, 60 min, mono and bis together, peaks are not separated in LC-MS): 50% mono and bis*

**Q.** What does the source list for `O=C1C=CC(=O)N1CCCOCCOCCOCCCN1C(=O)C=CC1=O` [Reference compound #1, reference compound]?
**A.** Conversion at 30 min, bis [1]: 50% bis; Conversion at 30 min, mono [1]: 0% mono; Conversion at 60 min, bis [2]: 60% bis; Conversion at 60 min, mono [2]: 0% mono; Conversion at 30 min, bis [3]: 97% bis; Conversion at 60 min, bis [4]: 88% bis; Conversion at 5 h, bis [3]: 82% bis; Conversion at 15 min, bis-Michael-addition product (bis): 9% bis; Conversion at 15 min, mono-Michael-addition product (mono): 0% mono; Conversion at 30 min, bis-Michael-addition product (bis): 10% bis; Conversion at 30 min, mono-Michael-addition product (mono): 0% mono; Conversion at 60 min, bis-Michael-addition product (bis) (60 min): 22% bis; Conversion at 60 min, mono-Michael-addition product (mono) (60 min): 29% mono; Conversion at 30 min, bis [5]: 30% bis; Conversion at 30 min, mono [5]: 30% mono; Conversion at 60 min, bis [6]: 56% bis; Conversion at 60 min, mono [6]: 9% mono

**Q.** With `O=C1C=CC(=O)N1CCOCCOCC12CC(COCCOCCN3C(=O)C=CC3=O)(C1)C2` [SPC-TB-0007, 1,1′-(((((bicyclo[1.1.1]pentane-1,3-diylbis(methylene))bis(oxy))bis(ethane-2,1-diyl))bis(oxy))bis(ethane-2,1-diyl))bis(1H-pyrrole-2,5-dione)] as the compound, how does the “Conversion at 30 min, bis” value [1] read?
**A.** 53% bis

**Q.** And the “Conversion at 30 min, mono” value [1]?
**A.** 20% mono

**Q.** What about the “Conversion at 60 min, bis” value [2] of the same compound?
**A.** 67% bis

**Q.** What about the “Conversion at 60 min, mono” value [2] of the same compound?
**A.** 9% mono

**Q.** And the “Conversion at 30 min, bis” value [3]?
**A.** 79% bis

**Q.** And the “Conversion at 60 min, bis” value [4]?
**A.** 79% bis

**Q.** And the “Conversion at 5 h, bis” value [3]?
**A.** 73% bis

**Q.** What about the “Conversion at 15 min … (bis)” value of the same compound?
**A.** 24% bis

**Q.** What about the “Conversion at 15 min … (mono)” value of the same compound?
**A.** 47% mono

**Q.** And the “Conversion at 30 min … (bis)” value?
**A.** 22% bis

**Q.** What about the “Conversion at 30 min … (mono)” value of the same compound?
**A.** 66% mono

**Q.** And the “Conversion at 60 min … (bis)” value (60 min)?
**A.** 50% bis

**Q.** And the “Conversion at 60 min … (mono)” value (60 min)?
**A.** 37% mono

**Q.** What about the “Conversion at 30 min, bis” value [5] of the same compound?
**A.** 26% bis

**Q.** What about the “Conversion at 30 min, mono” value [5] of the same compound?
**A.** 26% mono

**Q.** And the “Conversion at 60 min, bis” value [6]?
**A.** 44% bis

**Q.** What about the “Conversion at 60 min, mono” value [6] of the same compound?
**A.** 10% mono
